Reference: ChEMBL document CHEMBL3102717, “Synthesis and biological evaluation of amino acid methyl ester conjugates of 2-cyano-3,12-dioxooleana-1,9(11)-dien-28-oic acid against the production of nitric oxide (NO)” (2014)
The source made the active and inactive calls. No cut-off for these calls is given here.

Assays:
[1] = test system: RAW264.7; test: Inhibition of IFN-gamma-induced nitric oxide production in mouse RAW264.7 cells at 30 nM after 24 hrs by Griess method; format: functional, cell-based
[2] = Antiproliferative activity against mouse PANC1343 cells assessed as viable cells at 1uM after 72 hrs by MTT assay; format: functional; details: PANC-1, 72 h, read-out: Activity
[3] = molecular target: T1, Nuclear factor erythroid 2-related factor 2 (Mus musculus) (UniProt Q60795); test: Induction of Nrf2-mediated HO-1 expression in mouse RAW264.7 cells at 30 to 300 nM after 6 hrs by Western blot method; format: cell-based
T1 sequence (whole entry): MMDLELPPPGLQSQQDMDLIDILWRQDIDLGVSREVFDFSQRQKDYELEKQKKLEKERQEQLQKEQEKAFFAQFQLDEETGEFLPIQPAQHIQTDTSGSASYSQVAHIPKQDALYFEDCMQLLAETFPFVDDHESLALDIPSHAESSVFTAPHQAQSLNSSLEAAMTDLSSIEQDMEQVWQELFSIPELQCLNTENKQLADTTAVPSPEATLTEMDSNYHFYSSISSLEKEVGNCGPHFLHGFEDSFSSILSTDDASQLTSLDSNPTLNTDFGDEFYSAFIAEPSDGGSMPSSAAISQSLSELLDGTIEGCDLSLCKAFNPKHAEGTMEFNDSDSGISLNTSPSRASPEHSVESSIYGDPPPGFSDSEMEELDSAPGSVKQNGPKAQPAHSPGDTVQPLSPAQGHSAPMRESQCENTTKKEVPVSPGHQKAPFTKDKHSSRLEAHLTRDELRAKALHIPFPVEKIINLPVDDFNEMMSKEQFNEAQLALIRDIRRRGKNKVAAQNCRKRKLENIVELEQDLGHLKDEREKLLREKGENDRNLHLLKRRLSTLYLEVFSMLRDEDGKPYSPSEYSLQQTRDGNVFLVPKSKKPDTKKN

[4] = test system: RAW264.7; test: Antioxidant activity in mouse RAW264.7 cells assessed as inhibition of tBHP-induced ROS production at 100 nM pretreated for 18 hrs before challenge measured after 15 mins by H2DCFA-based flow cytometry; format: functional, cell-based
[5] = test system: RAW264.7; test: Antioxidant activity in mouse RAW264.7 cells assessed as inhibition of tBHP-induced ROS production at 10 nM pretreated for 18 hrs before challenge measured after 15 mins by H2DCFA-based flow cytometry; format: functional

Structure (SMILES)	inhibition [1]	viability at 1 µM [2] [%]	HO-1 expression induction [3]	inhibition [4]	inhibition at 0.01 µM [5] [%]
COC(=O)C(CC(C)C)NC(=O)[C@]12CCC(C)(C)C[C@H]1[C@H]1C(=O)C=C3[C@@]4(C)C=C(C#N)C(=O)C(C)(C)[C@@H]4CC[C@@]3(C)[C@]1(C)CC2 (some centres undefined)	inactive				
COC(=O)C(NC(=O)[C@]12CCC(C)(C)C[C@H]1[C@H]1C(=O)C=C3[C@@]4(C)C=C(C#N)C(=O)C(C)(C)[C@@H]4CC[C@@]3(C)[C@]1(C)CC2)C(C)C (some centres undefined)	Active	< 10	Active	Active	50
COC(=O)C1CCCN1C(=O)[C@]12CCC(C)(C)C[C@H]1[C@H]1C(=O)C=C3[C@@]4(C)C=C(C#N)C(=O)C(C)(C)[C@@H]4CC[C@@]3(C)[C@]1(C)CC2 (some centres undefined)	inactive				
COC(=O)C(Cc1ccccc1)NC(=O)[C@]12CCC(C)(C)C[C@H]1[C@H]1C(=O)C=C3[C@@]4(C)C=C(C#N)C(=O)C(C)(C)[C@@H]4CC[C@@]3(C)[C@]1(C)CC2 (some centres undefined)	inactive				
CCNC(=O)[C@]12CCC(C)(C)C[C@H]1[C@H]1C(=O)C=C3[C@@]4(C)C=C(C#N)C(=O)C(C)(C)[C@@H]4CC[C@@]3(C)[C@]1(C)CC2	Active		Active		
COC(=O)C(Cc1ccc(O)cc1)NC(=O)[C@]12CCC(C)(C)C[C@H]1[C@H]1C(=O)C=C3[C@@]4(C)C=C(C#N)C(=O)C(C)(C)[C@@H]4CC[C@@]3(C)[C@]1(C)CC2 (some centres undefined)	inactive				
COC(=O)C(CO)NC(=O)[C@]12CCC(C)(C)C[C@H]1[C@H]1C(=O)C=C3[C@@]4(C)C=C(C#N)C(=O)C(C)(C)[C@@H]4CC[C@@]3(C)[C@]1(C)CC2 (some centres undefined)	Active	< 10	Active	Active	50
COC(=O)C(Cc1cnc[nH]1)NC(=O)[C@]12CCC(C)(C)C[C@H]1[C@H]1C(=O)C=C3[C@@]4(C)C=C(C#N)C(=O)C(C)(C)[C@@H]4CC[C@@]3(C)[C@]1(C)CC2 (some centres undefined)	inactive				
COC(=O)CC(NC(=O)[C@]12CCC(C)(C)C[C@H]1[C@H]1C(=O)C=C3[C@@]4(C)C=C(C#N)C(=O)C(C)(C)[C@@H]4CC[C@@]3(C)[C@]1(C)CC2)C(=O)OC (some centres undefined)	inactive				
COC(=O)C(Cc1c[nH]c2ccccc12)NC(=O)[C@]12CCC(C)(C)C[C@H]1[C@H]1C(=O)C=C3[C@@]4(C)C=C(C#N)C(=O)C(C)(C)[C@@H]4CC[C@@]3(C)[C@]1(C)CC2 (some centres undefined)	inactive				
COC(=O)[C@]12CCC(C)(C)C[C@H]1[C@H]1C(=O)C=C3[C@@]4(C)C=C(C#N)C(=O)C(C)(C)[C@@H]4CC[C@@]3(C)[C@]1(C)CC2				Active	
COC(=O)C(C)NC(=O)[C@]12CCC(C)(C)C[C@H]1[C@H]1C(=O)C=C3[C@@]4(C)C=C(C#N)C(=O)C(C)(C)[C@@H]4CC[C@@]3(C)[C@]1(C)CC2 (some centres undefined)	Active	< 10	Active		50
